Read-outs that look alike come from different tables or passages of the source.
Experiments:
intracellular MRSA = type: cell-based, Staphylococcus aureus; details: for %GFP+ rep 1 / z-scoreMRSA+ rep 1: replicate 1; for %GFP+ rep 2 / z-scoreMRSA+ rep 2: replicate 2; for %GFP+ rep 3 / z-scoreMRSA+ rep 3: replicate 3; for z-scoreMRSA+ mean: mean of 3 replicates
Method in brief: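 HeLa cells were infected with GFP-expressing MRSA (mean MOI 6.8) for 1 h, treated with 30 µg/ml gentamicin for 15 min, then incubated overnight at 37°C with kinase inhibitors and 5 µg/ml gentamicin. Flow cytometry gave % GFP-positive cells, with cell count as viability. Hits were z-score ≤ -2 (infection) and ≥ -3 (count) versus DMSO.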

HeLa cells = test: Compound screen by flow cytometry: HeLa cell count as surrogate readout of cell viability (z-scoreHeLa); type: cell-based, human; details: for cell count rep 1 / z-scoreHeLa rep 1: replicate 1; for cell count rep 2 / z-scoreHeLa rep 2: replicate 2; for cell count rep 3 / z-scoreHeLa rep 3: replicate 3; for z-scoreHeLa mean: mean of 3 replicates
Method in brief: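 The viability surrogate was the count of fixed HeLa cells by flow cytometry, converted to z-scores against DMSO controls with values deviating two-fold excluded. Before counting, cells had been infected with MRSA for 1 h and cleared of extracellular bacteria with gentamicin. They were then exposed overnight to kinase inhibitors in triplicate.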

[1] = PKIS compound screen raw data, MRSA-infected HeLa cells
[2] = Yes/No: effect without cell death
[3] = compound screen, MRSA-infected HeLa cells
[4] = PKIS compound screen raw data, HeLa cell count
[5] = compound screen, HeLa cell count
[6] = PKIS compound screen, Yes/No call
[7] = PKIS compounds raw data, MRSA-infected HeLa cells
[8] = PKIS compounds raw data, HeLa cell count

| SMILES | %GFP+ rep 1 (intracellular MRSA; [1]) [%] | %GFP+ rep 2 (intracellular MRSA; [1]) [%] | %GFP+ rep 3 (intracellular MRSA; [1]) [%] | effect (intracellular MRSA; Yes/No call from z-scoreMRSA+) | hit (intracellular MRSA; [2]) | z-scoreMRSA+ mean (intracellular MRSA; [3]) | z-scoreMRSA+ rep 1 (intracellular MRSA; [3]) | z-scoreMRSA+ rep 2 (intracellular MRSA; [3]) | z-scoreMRSA+ rep 3 (intracellular MRSA; [3]) | cell death (HeLa cells; Yes/No call from z-scoreHeLa) | z-scoreHeLa mean (HeLa cells; [5]) | z-scoreHeLa rep 1 (HeLa cells; [5]) | z-scoreHeLa rep 2 (HeLa cells; [5]) | z-scoreHeLa rep 3 (HeLa cells; [5]) | %GFP+ rep 1 (intracellular MRSA; [7]) [%] | %GFP+ rep 2 (intracellular MRSA; [7]) [%] | %GFP+ rep 3 (intracellular MRSA; [7]) [%] | cell count rep 1 (HeLa cells; [8]) | cell count rep 2 (HeLa cells; [8]) | cell count rep 3 (HeLa cells; [8]) | also measured |
| --- | --- | --- | --- | --- | --- | --- | --- | --- | --- | --- | --- | --- | --- | --- | --- | --- | --- | --- | --- | --- | --- |
| Cn1cc(-c2ccc3c(c2)CCN3C(=O)Cc2cc(F)cc(F)c2F)c2c(N)ncnc21 [GSK2634140A] | 26.0 | 26.7 | 24.3 | No | No | 0.60 | 0.17 | 0.99 | 0.63 | No | -1.47 | -1.44 | -1.35 | -1.61 |  |  |  |  |  |  | cell count rep 1 (HeLa cells; [4]): 2359; cell count rep 2 (HeLa cells; [4]): 2548; cell count rep 3 (HeLa cells; [4]): 2693 |
| Cn1cc(-c2ccc3c(c2)CCN3C(=O)Cc2cc(F)cc(C(F)(F)F)c2)c2c(N)ncnc21 [GSK2635225A] | 22.6 | 22.9 | 20.1 | No | No | -0.39 | -0.62 | 0.07 | -0.63 | No | -0.02 | 0.31 | -0.0088 | -0.36 |  |  |  |  |  |  | cell count rep 1 (HeLa cells; [4]): 4783; cell count rep 2 (HeLa cells; [4]): 4290; cell count rep 3 (HeLa cells; [4]): 4665 |
| c1ccc(Cn2ncc3cc(Nc4ncnc5ccccc45)ccc32)cc1 [GW273749A] |  |  |  |  |  |  |  |  |  |  |  |  |  |  | 26.5 | 27.8 | 28.8 | 9337 | 8148 | 8467 | effect (intracellular MRSA; [6]): No; hit (intracellular MRSA; PKIS compound screen, Yes/No call (effect without cell death)): No; z-scoreMRSA+ mean (intracellular MRSA; PKIS compound screen): 0.17; z-scoreMRSA+ rep 1 (intracellular MRSA; PKIS compound screen): -0.11; z-scoreMRSA+ rep 2 (intracellular MRSA; PKIS compound screen): 0.34; z-scoreMRSA+ rep 3 (intracellular MRSA; PKIS compound screen): 0.28; cell death (HeLa cells; [6]): No; z-scoreHeLa mean (HeLa cells; PKIS compound screen): 1.74; z-scoreHeLa rep 1 (HeLa cells; PKIS compound screen): 1.98; z-scoreHeLa rep 2 (HeLa cells; PKIS compound screen): 1.42; z-scoreHeLa rep 3 (HeLa cells; PKIS compound screen): 1.82 |
| Cc1ccc2c(c1)C(=NNc1ccc(S(N)(=O)=O)cc1)C(=O)N2 [GW275944X] |  |  |  | No | No | -0.10 | 0.33 | 0.27 | -0.91 | No | -0.43 | -1.23 | 0.11 | -0.16 | 14.2 | 14.3 | 12.8 | 3417 | 4418 | 6627 |  |
| CS(=O)(=O)Nc1ccc(N/C=C2\C(=O)Nc3ccccc32)cc1 [GW278681X] |  |  |  | No | No | -0.46 | -0.41 | 0.07 | -1.03 | No | -0.10 | -0.47 | 0.34 | -0.16 | 11.9 | 13.7 | 12.4 | 4258 | 4720 | 6630 |  |

Source: PMC10999543, “Identification of kinase modulators as host-directed therapeutics against intracellular methicillin-resistant Staphylococcus aureus” (Frontiers in Cellular and Infection Microbiology, 2024)
